Consider four compounds from patent US4582827A, “Pesticidal diphenylaziridines” (priority 1983, dated 1986).

Data set [1] concerns Salmonella typhimurium strains TA 98, TA 100, TA 1535, TA 1537, TA 1538, TA 1978. Put plainly: Ames assay (spot test), revertant colonies. In kind it is cell-based. The method, then:
This means that aziridine compounds, 1, 10, or 11, will not cause mutations in DNA arising from potential changes in frame shift and/or base pairing. Compounds 1, 10 and 11 were tested for mutagenic properties using the following experimental procedure.
Potential mutagenic and carcinogenic properties of the compounds were evaluated with standard Ames assay procedures (Ames et al, "Mutation Res.", 31, p. 347, 1975). This assay used strains of Salmonella typhimurium selected for sensitivity and specificity in being reverted from a histidine requirement back to prototrophy by a wide variety of mutagens. Potential changes in frameshift were evaluated using strains TA 98, TA 1537 and TA 1538, while changes in base pairing were detected using strains TA 100 and TA 1535. In addition, strain TA 1978 was used, in combination with TA 1538, to evaluate whether the agent killed bacteria by damage to DNA that could be repaired by this strain. Initially, the compounds were screened using the spot test, in which 1000 μgm of material dissolved in 10 μl of DNSO was applied to the middle of the plate.
Dose-response tests were not performed because the results were negative. All the tests were carried out in the presence and absence of an S9 rat liver preparation and contained a positive control (2-acetylaminofluorene,AAF) and a negative control (DMSO).
A general note: The Ames test detects mutagens through reverse mutation in bacteria.

The test system of a further data set is H. virescens. Description: Incorporation into H. virescens diet. In kind it is in vivo, Heliothis virescens. Particulars: as much as 20 mM in diet. The method, then: Compounds 1, 10, 11, 13 and 14 were incorporated into H. virescens diet in the same manner as M. Sexta. Diets containing as much as 20 mM of each compound had little effect on larval development time, pupal weight or time to adult emergence.

Data set [2] concerns tobacco hornworm larvae (newly ecdysed fifth-instar). Description: Topical application to tobacco hornworm larvae. In kind it is in vivo, Manduca sexta. How it is done: The test compounds were dissolved either in acetone or hexane and applied to the integument of the test insect with a micro applicator. Newly ecdysed fifth-instar tobacco hornworm larvae weighing between 1-1.5 g were used and toxicity data were obtained in the same way as previously described.

Data set [3] has as its system tobacco hornworm (Manduca sexta) larvae. Put plainly: Tobacco hornworm growth and developmental responses to feeding on diets containing the compounds. Format: in vivo. How it is done:
The compounds produced and described in Example 1 were then tested for pesticidal activity against the tobacco hornworm (Manduca sexta). The screening procedure for these tests began with the larval stage and continued through the pupal and adult stages and finally evaluated egg production. The studies thus permitted the evaluation of the effects of the compounds over several subsequent developmental stages in the total life cycle of the insect, giving estimates of acute toxicity (insecticidalor larvicidal activity) as well as prolonged or delayed effects on development (growth regulation) and reproduction (chemosterilization). The latter are of special importance in conjunction with the integrated pest management approach to insect control.
The test compounds were incorporated into the artificial diet of tobacco hornworm larvae and their subsequent growth and developmental responses were monitored using the following parameters: larval mortality including determination of LD50 values, rate of larval development and weight gain, percent pupation, pupal weight and degree of deformities, percent adult emergence and measures of reproductive capacity such as the number of developed ooctyes, fecundity and fertility. The protocol for the screening tests has been developed over a number of years by Dahlman et al., Comp. Biochem. Physiol. 51A, 33, (1975); Comp. Biochem. Physiol., 52A, 105 (1975); Ent. Exp. et Appl., 22, 123 (1977); Palumbo and D. L. Dahlman, J. Econ. Entomol. 71, 674 (1978); D. L. Dahlman, Ent. Exp. et Appl., 24, 327 (1978).
Each treatment used 15 newly ecdysed fifth-instar larvae. Death of larvae within a few hours to several days of initial exposure was considered to be acute toxicity. However, the compounds may reduce the maximum size attained by larvae and/or may retard growth so that larvae require additional time to attain their maximum size. Developmental parameters subsequent to the feeding stage also may be affected. […] Mortality may occur in the pupal stage or emerging adults may have wrinkled wings or other deformities. The number of eggs produced by treated females may be reduced and/or unfertile. Although acute toxicity is desirable in the control of any insect, the delayed effects which result in poor survival and reduced reproductive capacity are significant factors in the long-range program of pest management systems.
Continuous cultures of M. sexta are maintained according to the procedures of Yamamoto, J. Econ. Entomol., 62, p. 1427 (1969). Ingredients of the diet formulation include sugar, casein, wheat germ oil, cholesterol, salt mixture, yeast, vitamins, antioxidants and fungal inhibitors, such as ascorbic acid, sorbic acid, formaldehyde and methyl-p-benzoate. All are incorporated into a liquid agar base which, when poured into holding pans, solidifies to form an adequate substrate upon which the insect larvae feed. Nearly any test material can be uniformly incorporated into such a diet. Thus, exposure to experimental compounds can be evaluated during all or any part of the larval stage. In addition, chronic or long-term effects in subsequent life stages can also be monitored.
The results from these studies, in which the 1,2-diphenylaziridines of Example 1 were incorporated singly into the diet of M. sexta at a concentration of 5 mM are presented in the following Table I.

Another data set has as its system mammals. Particulars: cited from earlier work.
The next data set deals with H. virescens larvae. Description: Topical application to H. virescens larvae. Format: in vivo, Heliothis virescens. Particulars: within 48 hr.

As usually defined, the mortality is the share of the test organisms that died. Take `Clc1ccc(N2CC2c2ccccc2Cl)cc1` (stereo not shown) [Compound 11]: the “Mean number of revertant colonies per plate, TA 98 +S9” value in data set [1] (strain TA 98, +S9) is listed as 44.7 colonies per plate. Further, in data set [1] (strain TA 98, -S9), the “Mean number of revertant colonies per plate, TA 98 -S9” value amounted to 27.3 colonies per plate. In addition, the “Mean number of revertant colonies per plate, TA 100 +S9” value in data set [1] (strain TA 100, +S9) amounted to 58.3 colonies per plate. The “Mean number of revertant colonies per plate, TA 100 -S9” value in data set [1] (strain TA 100, -S9) is listed as 28.0 colonies per plate. Besides, the “Mean number of revertant colonies per plate, TA 1535 +S9” value in data set [1] (strain TA 1535, +S9) is listed as 15.3 colonies per plate. The “Mean number of revertant colonies per plate, TA 1535 -S9” value in data set [1] (strain TA 1535, -S9) worked out at 16.3 colonies per plate. Besides, in data set [1] (strain TA 1537, +S9), the “Mean number of revertant colonies per plate, TA 1537 +S9” value turned out to be 13.7 colonies per plate. Further, the “Mean number of revertant colonies per plate, TA 1537 -S9” value in data set [1] (strain TA 1537, -S9) was 9.7 colonies per plate. Besides, the “Mean number of revertant colonies per plate, TA 1538 +S9” value in data set [1] (strain TA 1538, +S9) came to 26.0 colonies per plate. The “Mean number of revertant colonies per plate, TA 1538 -S9” value in data set [1] (strain TA 1538, -S9) worked out at 13.3 colonies per plate. Also, in data set [1] (strain TA 1978, +S9), the “Mean number of revertant colonies per plate, TA 1978 +S9” value turned out to be 196.0 colonies per plate. Also, the “Mean number of revertant colonies per plate, TA 1978 -S9” value in data set [1] (strain TA 1978, -S9) is recorded as 209.7 colonies per plate. For the same compound, the “mutagenicity” value in data set [1] (with and without S9 / mammalian liver enzymes) is reported as “not mutagenic”. Besides, the “effect on larval development time, pupal weight or time to adult emergence” value in the data set with H. virescens is “little effect”. The same compound displayed a larvae killed in data set [2] (500 μg/larva (400 ppm), within 48 hr) of 80%. For the same compound, in data set [2] (250 ppm topical), the “developmental effects” value is “increased larval developmental time, reduced maximum weight and fewer numbers of eggs”. Further, the mortality at 250 ppm, 250 µg/g in data set [2] (Manduca sexta, 250 ppm topical, read-out: larval mortality) worked out at 30%. In addition, in data set [2] (topical), the “topical activity against the tobacco hornworm (comparison in words)” value is recorded as “less active than Compound 13”. For the same compound, in data set [3] (1 mM in diet), the “% Adult Emergence” value turned out to be 100%, the “% Adults” value was found to be 100%, the “% Malformed Adults” value came to 7% and the “% Pupation” value is on record as 100%. Further, in data set [3] (1 mM in diet), the “Days to Max Wt” value is 5.9 ± .1 days, the “Max Larval Wt” value worked out at 8.29 g, the “Mean No. of Eggs” value is listed as 74 ± 22 and the “No. of female Adults” value worked out at 4. For the same compound, in data set [3] (1 mM in diet), the “Total No. of Adults” value is recorded as 14 and the “larval weight” value is reported as “a slight reduction in larval weight”. Moreover, in data set [3] (2.5 mM in diet), the “% Adult Emergence” value is on record as 100%, the “% Adults” value worked out at 60%, the “% Malformed Adults” value turned out to be 0% and the “% Pupation” value is listed as 60%. Besides, in data set [3] (2.5 mM in diet), the “Days to Max Wt” value stood at 7.7 ± 0.6 days, the “Max Larval Wt” value amounted to 6.77 g, the “Mean No. of Eggs” value came to 15 ± 7 and the “No. of female Adults” value is listed as 7. In data set [3] (2.5 mM in diet), the “Total No. of Adults” value stood at 9; the “maximum larval weight and mean number of eggs” value was “reduced maximum larval weight and the mean number of eggs”; the “percent pupation” value is “lowered the percent pupation”. In addition, in data set [3] (5 mM in diet), the “larval death (words in table)” value is listed as “ALL DEAD WITHIN 24 HR OF START OF TEST”; the “larval mortality” value is listed as “all or nearly all larvae died”; the symptoms of larvae entry was “extreme agitation of larvae, oral and anal expulsion of fluids and ultimately, death”; the “time until all larvae dead” value was ≤ 24 h. In addition, the “oral activity” value in data set [3] (diet, Example 2) is on record as “good oral activity”. Besides, the “larval mortality (acute toxicity)” value in data set [3] (in 24-72 hours, summary of Tables I and II) stood at 100%. Moreover, the “time to 100% larval mortality” value in data set [3] (summary of Tables I and II) was in the range of 24 to 72 h.
Take `CC1CN1P(=O)(N1CC1C)N1CC1C` (stereo not shown) [metepa, tris(2-methyl-1-aziridinyl)phosphine oxide]: the “toxicity reported in the literature” value with mammals was “carcinogenic and mutagenic properties”.
Regarding `O=P(N1CC1)(N1CC1)N1CC1` [tepa, tris(1-aziridinyl)-phosphine oxide], the “toxicity reported in the literature” value in the data set with mammals is “carcinogenic and mutagenic properties”.
In the data set with H. virescens larvae (62.5 μg/larva or 625 ppm topical, 100 mg larvae), `Fc1ccc(N2CC2c2ccccc2F)cc1` (stereo not shown) [Compound 15] showed a larvae killed of 60%. The compound further had a larvae killed with H. virescens larvae (312 ppm topical) of 40%. The “size of surviving larvae” value in data set [2] (125 μg/larvae) is “smaller than controls”. This compound had a mortality at 125 µg/larva in data set [2] (Manduca sexta, topical, 125 μg/larvae, during the entire 5th instar) of 20%. The same compound gave a mortality at 250 µg/larva in data set [2] (Manduca sexta, topical, 250 μg/larva, within 24 hr) of 100%. Also, in data set [3] (5 mM in diet), the “% Adult Emergence” value worked out at 60%, the “% Malformed Adults” value worked out at 0%, the “% Pupation” value amounted to 67% and the “Days to Max Wt” value was 6.7 ± .4 days. In data set [3] (5 mM in diet), the “Max Larval Wt” value is 8.04 ± .41 g, the “Mean No. of Eggs” value is on record as 67 ± 42 and the “No. of female Adults” value is listed as 3. The “Total No. of Adults” value in data set [3] (5 mM in diet, all tests began with 15 larvae) was found to be 9.
